What follows are compounds tested against Recombinant human ATX (Homo sapiens (Human), UniProt Q13822) (assay: ATX inhibition assay (choline release, Amplex Red fluorescence)). Conditions: ATX 10 nM, LPC 18:1 10 μM, 37° C., 20 min pre-incubation; mean of n≧2.
Format: biochemical
Description: Reagents—LPC (oleoyl (18:1)) was purchased from Avanti Polar Lipids (Alabaster, Ala.) and solubilized in methanol to 20 mM. Amplex Red was obtained from Invitrogen Life Technologies (Paisley, UK) and dissolved in DMSO to 10 mM. Choline oxidase and horseradish peroxidase (HRP) were obtained from Sigma Aldrich (Dorset, UK) and dissolved in HBSS to 20 U/ml and 200 U/ml respectively. All reagents were stored at −20° C. in single use aliquots. All experimental measurements were performed in assay buffer made up immediately prior to use (HBSS, 0.01% BSA essentially fatty acid free).
PerkinElmer EnVision (Fluorescence Intensity/Absorbance Monochromator) or Tecan Infinite 200 PRO series plate reader was used to detect change in fluorescent intensity.
Assessing ATX inhibition—ATX activity was determined by measurement of released choline in reactions containing ATX (10 nM), choline oxidase (0.1 U/ml), HRP (100 U/ml), amplex red (50 μM) and LPC 18:1 (10 μM). Compounds of the invention were prepared as 10 point serial dilutions from 1 μM in duplicate and pre-incubated with ATX at 37° C. for 20 minutes prior to the addition of remaining reagents. The liberated choline was measured from changes in fluorescence intensity (λex 530 nm, λem 590 nm) of the product resurofin at 37° C. every 2 minutes over a 40-minute period. ATX activity was measured as a slope of the linear portion of the progress curve, typically between 14 to 24 minutes.
Data analysis—Slope data was exported to Graphpad prism (Graphpad software, San Diego, Calif.) where data was fitted to equation 1. Y=Bottom+(Top-Bottom)/(1+10^((Log IC50−X)*HillSlope)) Equation 1: […]

IC50	SMILES
1060 nM	Cc1nnn(Cc2cc(Cl)ccc2/C=C/C(=O)N2CCCC(c3nncn3C)C2)n1 (stereo not drawn) [Example 49.16, (E)-3-(4-Chloro-2-((5-methyl-2H-tetrazol-2-yl)methyl)phenyl)-1-(3-(4-methyl-4H-1,2,4-triazol-3-yl)piperidin-1-yl)prop-2-en-1-one]
70 nM	Cc1nnn(Cc2cc(Cl)ccc2COC(=O)N2CCC(c3ncc(C)o3)CC2)n1 [Example 48, 4-Chloro-2-((5-methyl-2H-tetrazol-2-yl)methyl)benzyl 4-(5-methyloxazol-2-yl)piperidine-1-carboxylate]
5.5 nM	Cc1nnn(Cc2cc(C(F)(F)F)ccc2/C=C/C(=O)N2CCN(CC(=O)OC(C)(C)C)C[C@H]2C)n1 [Example 65, (R,E)-tert-Butyl 2-(3-methyl-4-(3-(2-((5-methyl-2H-tetrazol-2-yl)methyl)-4-(trifluoromethyl)phenyl)acryloyl)piperazin-1-yl)acetate]
785 nM	Cc1nnn(Cc2cc(C#N)ccc2/C=C/C(=O)N2CCC(Cc3nnc(C)o3)CC2)n1 [Example 82, (E)-4-(3-(4-((5-Methyl-1,3,4-oxadiazol-2-yl)methyl)piperidin-1-yl)-3-oxoprop-1-en-1-yl)-3-((5-methyl-2H-tetrazol-2-yl)methyl)benzonitrile]
1990 nM	Cc1nnc(CC2CCN(C(=O)/C=C/c3ccc(Cl)cc3Cn3ncnn3)CC2)o1 [Example 77, (E)-3-(2-((2H-Tetrazol-2-yl)methyl)-4-chlorophenyl)-1-(4-((5-methyl-1,3,4-oxadiazol-2-yl)methyl)piperidin-1-yl)prop-2-en-1-one]
320 nM	Cc1nnn(Cc2cc(Cl)ccc2/C=C/C(=O)N2CCC(F)C2)n1 (stereo not drawn) [Example 49.5, (E)-3-(4-Chloro-2-((5-methyl-2H-tetrazol-2-yl)methyl)phenyl)-1-(3-fluoropyrrolidin-1-yl)prop-2-en-1-one]
35 nM	Cc1nnn(Cc2cc(C(F)(F)F)ccc2/C=C/C(=O)N2CCCCC2C(F)(F)F)n1 (stereo not drawn) [Example 124, (E)-3-(2-((5-Methyl-2H-tetrazol-2-yl)methyl)-4-(trifluoromethyl)phenyl)-1-(2-(trifluoromethyl)piperidin-1-yl)prop-2-en-1-one]
160 nM	CC(=O)N1CCCN(C(=O)/C=C/c2ccc(Cl)cc2Cn2nnc(C)n2)CC1 [Example 49.26, (E)-1-(4-Acetyl-1,4-diazepan-1-yl)-3-(4-chloro-2-((5-methyl-2H-tetrazol-2-yl)methyl)phenyl)prop-2-en-1-one]
32 nM	Cc1nnn(Cc2cc(Cl)ccc2/C=C/C(=O)N2CCC(Cc3nnc(CN4CCOCC4)o3)CC2)n1 [Example 136, (E)-3-(4-Chloro-2-((5-methyl-2H-tetrazol-2-yl)methyl)phenyl)-1-(4-((5-(morpholinomethyl)-1,3,4-oxadiazol-2-yl)methyl)piperidin-1-yl)prop-2-en-1-one]
28 nM	Cc1noc(C2CCCCN2C(=O)/C=C/c2ccc(Cl)cc2Cn2nnc(C)n2)n1 (racemic) [Example 23, (rac)-(E)-3-(4-Chloro-2-((5-methyl-2H-tetrazol-2-yl)methyl)phenyl)-1-(2-(3-methyl-1,2,4-oxadiazol-5-yl)piperidin-1-yl)prop-2-en-1-one]
24 nM	Cc1nnn(Cc2cc(C(F)(F)F)ccc2/C=C/C(=O)N2CCC(N(C)S(=O)(=O)c3ccc(F)cc3)CC2)n1 [Example 118, (E)-4-Fluoro-N-methyl-N-(1-(3-(2-((5-methyl-2H-tetrazol-2-yl)methyl)-4-(trifluoromethyl)phenyl)acryloyl)piperidin-4-yl)benzenesulfonamide]
73 nM	Cc1noc(Cc2cc(Cl)ccc2/C=C/C(=O)N2CCN(Cc3coc(C)n3)CC2)n1 [Example 76, (E)-3-(4-Chloro-2-((3-methyl-1,2,4-oxadiazol-5-yl)methyl)phenyl)-1-(4-((2-methyloxazol-4-yl)methyl)piperazin-1-yl)prop-2-en-1-one]
37 nM	Cc1nnn(Cc2cc(Cl)ccc2/C=C/C(=O)N2CCC(O)(Cn3cc(C(F)(F)F)cn3)CC2)n1 [Example 18, (E)-3-(4-Chloro-2-((5-methyl-2H-tetrazol-2-yl)methyl)phenyl)-1-(4-hydroxy-4-((4-(trifluoromethyl)-1H-pyrazol-1-yl)methyl)piperidin-1-yl)prop-2-en-1-one]
9.2 nM	Cc1nnn(Cc2cc(C(F)(F)F)ccc2/C=C/C(=O)N2CCC(CCOCCc3cnn[nH]3)CC2)n1 [Example 157, (E)-1-(4-(2-(2-(1H-1,2,3-Triazol-5-yl)ethoxy)ethyl)piperidin-1-yl)-3-(2-((5-methyl-2H-tetrazol-2-yl)methyl)-4-(trifluoromethyl)phenyl)prop-2-en-1-one]
31 nM	Cc1nnn(Cc2cc(Cl)ccc2/C=C/C(=O)N2CCC(CCCc3nnc(C)o3)CC2)n1 [Example 26, (E)-3-(4-Chloro-2-((5-methyl-2H-tetrazol-2-yl)methyl)phenyl)-1-(4-(3-(5-methyl-1,3,4-oxadiazol-2-yl)propyl)piperidin-1-yl)prop-2-en-1-one]
924 nM	Cc1nnn(Cc2cc(Cl)ccc2/C=C/C(=O)N2CCC(O)(Cn3cc(C(=O)O)cn3)CC2)n1 [Example 35, (E)-1-((1-(3-(4-Chloro-2-((5-methyl-2H-tetrazol-2-yl)methyl)phenyl)acryloyl)-4-hydroxypiperidin-4-yl)methyl)-1H-pyrazole-4-carboxylic acid]
6.3 nM	Cc1nnn(Cc2cc(Cl)ccc2/C=C/C(=O)N2CCC(O)(Cc3ccccc3)CC2)n1 [Example 138, (E)-1-(4-Benzyl-4-hydroxypiperidin-1-yl)-3-(4-chloro-2-((5-methyl-2H-tetrazol-2-yl)methyl)phenyl)prop-2-en-1-one-N]
149 nM	Cc1nnn(Cc2cc(Cl)ccc2/C=C/C(=O)N2CCCC(c3nc(C(C)C)no3)C2)n1 (single isomer, unassigned) [Example 34b, (R or S, E)-3-(4-chloro-2-((5-methyl-2H-tetrazol-2-yl)methyl)phenyl)-1-(3-(3-isopropyl-1,2,4-oxadiazol-5-yl)piperidin-1-yl)prop-2-en-1-one]
42 nM	Cc1nnn(Cc2cc(C(F)(F)F)ccc2CCC(=O)N2CCC(c3nnc(C)o3)CC2)n1 [Example 40, 1-(4-(5-Methyl-1,3,4-oxadiazol-2-yl)piperidin-1-yl)-3-(2-((5-methyl-2H-tetrazol-2-yl)methyl)-4-(trifluoromethyl)phenyl)propan-1-one]
25 nM	COCC1CCN(C(=O)/C=C/c2ccc(C(F)(F)F)cc2Cn2nnc(C)n2)CC1 [Example 99, (E)-1-(4-(Methoxymethyl)piperidin-1-yl)-3-(2-((5-methyl-2H-tetrazol-2-yl)methyl)-4-(trifluoromethyl)phenyl)prop-2-en-1-one]
17 nM	Cc1nnn(Cc2cc(Cl)ccc2/C=C/C(=O)N2CCC(Oc3ccccc3C(=O)N(C)C)CC2)n1 [Example 49.13, (E)-2-((1-(3-(4-Chloro-2-((5-methyl-2H-tetrazol-2-yl)methyl)phenyl)acryloyl)piperidin-4-yl)oxy)-N,N-dimethyl benzamide]
26 nM	Cc1nnn(Cc2cc(Cl)ccc2/C=C/C(=O)N2CCC(n3nccn3)CC2)n1 [Example 22, (E)-1-(4-(2H-1,2,3-Triazol-2-yl)piperidin-1-yl)-3-(4-chloro-2-((5-methyl-2H-tetrazol-2-yl)methyl)phenyl)prop-2-en-1-one]
644 nM	Cc1cnc(Cc2cc(Cl)ccc2/C=C/C(=O)N2CCC(Cc3nnc(C)o3)CC2)o1 [Example 45, (E)-3-(4-Chloro-2-((5-methyloxazol-2-yl)methyl)phenyl)-1-(4-((5-methyl-1,3,4-oxadiazol-2-yl)methyl)piperidin-1-yl)prop-2-en-1-one]
8.9 nM	Cc1nnn(Cc2cc(OC(F)(F)F)ccc2/C=C/C(=O)N2CCC(c3nnc(C)o3)CC2)n1 [Example 54, (E)-1-(4-(5-Methyl-1,3,4-oxadiazol-2-yl)piperidin-1-yl)-3-(2-((5-methyl-2H-tetrazol-2-yl)methyl)-4-(trifluoromethoxy)phenyl)prop-2-en-1-one]
4.5 nM	Cc1nnn(Cc2cc(C(F)(F)F)ccc2/C=C/C(=O)N2CCN(C(=O)OC(C)(C)C)CC2)n1 [Example 68, (E)-tert-Butyl-4-(3-(2-((5-methyl-2H-tetrazol-2-yl)methyl)-4-(trifluoromethyl)phenyl)acryloyl)piperazine-1-carboxylate]
32 nM	COC(=O)C1CCCCN1C(=O)/C=C/c1ccc(Cl)cc1Cn1nnc(C)n1 (stereo not drawn) [Example 29, (E)-Methyl 1-(3-(4-Chloro-2-((5-methyl-2H-tetrazol-2-yl)methyl)phenyl)acryloyl) piperidine-2-carboxylate]
163 nM	Cc1nnn(Cc2cc(Cl)ccc2/C=C/C(=O)N2CCC(CCc3nnc(C)o3)CC2)n1 [Example 20, (E)-3-(4-Chloro-2-((5-methyl-2H-tetrazol-2-yl)methyl)phenyl)-1-(4-(2-(5-methyl-1,3,4-oxadiazol-2-yl)ethyl)piperidin-1-yl)prop-2-en-1-one]

From patent publication US9763957B2, “Autotaxin inhibitors” (Novartis AG, priority 2013, dated 2017)
